In PubChem BioAssay AID1259407 (Chemical Carcinogenesis Research Information System (CCRIS), 2018):
Activity calls are given as the source filed them. How the calls were made is not given here.

System: CCRIS mutagenicity, Ames/micronucleus/aberration tests
Experiment: CCRIS mutagenicity studies
[1] = Test System: AMES SALMONELLA TYPHIMURIUM, Strain/Indicator: TA100, Metabolic Activation: NONE, Method: STANDARD PLATE
[2] = Test System: AMES SALMONELLA TYPHIMURIUM, Strain/Indicator: TA98, Metabolic Activation: NONE, Method: STANDARD PLATE
[3] = Test System: AMES SALMONELLA TYPHIMURIUM, Strain/Indicator: TA98, Metabolic Activation: RAT, LIVER, S-9, AROCLOR 1254, Method: STANDARD PLATE
[4] = Test System: AMES SALMONELLA TYPHIMURIUM, Strain/Indicator: TA100, Metabolic Activation: RAT, LIVER, S-9, AROCLOR 1254, Method: STANDARD PLATE
[5] = Test System: AMES SALMONELLA TYPHIMURIUM, Strain/Indicator: TA100, Metabolic Activation: NONE, Method: PREINCUBATION

**Q.** With `CCOc1ccc(NO)cc1` as the compound, how does the mutagenic call (Test System: AMES SALMONELLA TYPHIMURIUM, Strain/Indicator: TA100(NR), Metabolic Activation: NONE, Method: PREINCUBATION) read?
**A.** The mutagenic call was “inactive; negative”.

**Q.** What about the mutagenic call (Test System: AMES SALMONELLA TYPHIMURIUM, Strain/Indicator: TA100(NR), Metabolic Activation: NONE, Method: STANDARD PLATE) of the same compound?
**A.** Its mutagenic call is “inactive; negative”.

**Q.** What about the mutagenic call (Test System: AMES SALMONELLA TYPHIMURIUM, Strain/Indicator: TA100, Metabolic Activation: HAMSTER, LIVER, S-9, KANECHLOR 400, Method: PREINCUBATION) of the same compound?
**A.** The mutagenic call was “active; positive”.

**Q.** And the mutagenic call [1]?
**A.** The mutagenic call was “inactive; negative”.

**Q.** What about the mutagenic call (Test System: AMES SALMONELLA TYPHIMURIUM, Strain/Indicator: TA100TN5-1,8-DNP1011, Metabolic Activation: NONE, Method: PREINCUBATION) of the same compound?
**A.** Its mutagenic call is “inactive; negative”.

**Q.** What about the mutagenic call (Test System: AMES SALMONELLA TYPHIMURIUM, Strain/Indicator: TA100TN5-1,8-DNP1011, Metabolic Activation: NONE, Method: STANDARD PLATE) of the same compound?
**A.** The mutagenic call was “inactive; negative”.

**Q.** What about the mutagenic call (Test System: AMES SALMONELLA TYPHIMURIUM, Strain/Indicator: TA100TN5-1,8-DNP1012, Metabolic Activation: NONE, Method: PREINCUBATION) of the same compound?
**A.** The mutagenic call was “inactive; negative”.

**Q.** And the mutagenic call (Test System: AMES SALMONELLA TYPHIMURIUM, Strain/Indicator: TA100TN5-1,8-DNP1012, Metabolic Activation: NONE, Method: STANDARD PLATE)?
**A.** Its mutagenic call is “inactive; negative”.

**Q.** What about the mutagenic call (Test System: AMES SALMONELLA TYPHIMURIUM, Strain/Indicator: YG1026, Metabolic Activation: NONE, Method: PREINCUBATION) of the same compound?
**A.** The mutagenic call was “active; positive”.

**Q.** And the mutagenic call (Test System: AMES SALMONELLA TYPHIMURIUM, Strain/Indicator: YG1029, Metabolic Activation: NONE, Method: PREINCUBATION)?
**A.** Its mutagenic call is “active; positive”.

**Q.** And the mutagenic call (Test System: AMES SALMONELLA TYPHIMURIUM, Strain/Indicator: YG1042, Metabolic Activation: NONE, Method: PREINCUBATION)?
**A.** Its mutagenic call is “active; positive”.

**Q.** With `CC(C)(C)NCC(O)c1ccc(O)c(NC(N)=O)c1` (stereo not drawn) as the compound, how does the mutagenic call [2] read?
**A.** The mutagenic call was “inactive; negative”.

**Q.** What about the mutagenic call [3] of the same compound?
**A.** Its mutagenic call is “inactive; negative”.

**Q.** And the mutagenic call [1]?
**A.** The mutagenic call was “inactive; negative”.

**Q.** What about the mutagenic call [4] of the same compound?
**A.** The mutagenic call was “inactive; negative”.

**Q.** `O=NSCCO` was tested. Which mutagenic call [5] did it give?
**A.** The mutagenic call was “active; positive”.

**Q.** `CCN(CC)CCNc1ccc(CO)c2sc3ccccc3c(=O)c12` was tested. Which mutagenic call (Test System: AMES SALMONELLA TYPHIMURIUM, Strain/Indicator: TA98, Metabolic Activation: HAMSTER, LIVER, S-9, AROCLOR 1254 (30%), Method: PREINCUBATION) did it give?
**A.** The mutagenic call was “active; positive”.

**Q.** And the mutagenic call (Test System: AMES SALMONELLA TYPHIMURIUM, Strain/Indicator: TA98, Metabolic Activation: NONE, Method: PREINCUBATION)?
**A.** The mutagenic call was “active; positive”.

**Q.** And the mutagenic call [2]?
**A.** The mutagenic call was “active; positive”.

**Q.** What about the mutagenic call (Test System: AMES SALMONELLA TYPHIMURIUM, Strain/Indicator: TA98, Metabolic Activation: RAT, LIVER, S-9, AROCLOR 1254 (30%), Method: PREINCUBATION) of the same compound?
**A.** Its mutagenic call is “active; positive”.

**Q.** What about the mutagenic call (Test System: AMES SALMONELLA TYPHIMURIUM, Strain/Indicator: TA98, Metabolic Activation: RAT, LIVER, S-9, AROCLOR 1254 OR PHENOBARBITOL, Method: STANDARD PLATE) of the same compound?
**A.** The mutagenic call was “active; positive”.

**Q.** And the mutagenic call (Test System: AMES SALMONELLA TYPHIMURIUM, Strain/Indicator: TA98, Metabolic Activation: RAT, LIVER, S-9, KC500 OR PHENOBARBITAL, Method: LIQUID SUSPENSION)?
**A.** Its mutagenic call is “active; positive”.

**Q.** And the mutagenic call (Test System: AMES SALMONELLA TYPHIMURIUM, Strain/Indicator: TA100, Metabolic Activation: HAMSTER, LIVER, S-9, AROCLOR 1254 (30%), Method: PREINCUBATION)?
**A.** Its mutagenic call is “active; positive”.

**Q.** And the mutagenic call [5]?
**A.** Its mutagenic call is “active; positive”.

**Q.** And the mutagenic call [1]?
**A.** The mutagenic call was “active; positive”.

**Q.** What about the mutagenic call (Test System: AMES SALMONELLA TYPHIMURIUM, Strain/Indicator: TA100, Metabolic Activation: RAT, LIVER, S-9, AROCLOR 1254 (30%), Method: PREINCUBATION) of the same compound?
**A.** Its mutagenic call is “active; positive”.

**Q.** And the mutagenic call (Test System: AMES SALMONELLA TYPHIMURIUM, Strain/Indicator: TA100, Metabolic Activation: RAT, LIVER, S-9, AROCLOR 1254 OR PHENOBARBITOL, Method: STANDARD PLATE)?
**A.** The mutagenic call was “active; positive”.

**Q.** What about the mutagenic call (Test System: AMES SALMONELLA TYPHIMURIUM, Strain/Indicator: TA100, Metabolic Activation: RAT, LIVER, S-9, KC500 OR PHENOBARBITAL, Method: LIQUID SUSPENSION) of the same compound?
**A.** The mutagenic call was “active; positive”.

**Q.** What about the mutagenic call (Test System: AMES SALMONELLA TYPHIMURIUM, Strain/Indicator: TA1535, Metabolic Activation: NONE, Method: STANDARD PLATE) of the same compound?
**A.** Its mutagenic call is “inactive; negative”.

**Q.** And the mutagenic call (Test System: AMES SALMONELLA TYPHIMURIUM, Strain/Indicator: TA1535, Metabolic Activation: RAT, LIVER, S-9, AROCLOR 1254 OR PHENOBARBITOL, Method: STANDARD PLATE)?
**A.** The mutagenic call was “inactive; negative”.

**Q.** And the mutagenic call (Test System: AMES SALMONELLA TYPHIMURIUM, Strain/Indicator: TA1537, Metabolic Activation: NONE, Method: STANDARD PLATE)?
**A.** Its mutagenic call is “active; positive”.

**Q.** What about the mutagenic call (Test System: AMES SALMONELLA TYPHIMURIUM, Strain/Indicator: TA1537, Metabolic Activation: RAT, LIVER, S-9, AROCLOR 1254 OR PHENOBARBITOL, Method: STANDARD PLATE) of the same compound?
**A.** The mutagenic call was “active; positive”.

**Q.** And the mutagenic call (Test System: AMES SALMONELLA TYPHIMURIUM, Strain/Indicator: TA1537, Metabolic Activation: RAT, LIVER, S-9, KC500 OR PHENOBARBITAL, Method: LIQUID SUSPENSION)?
**A.** The mutagenic call was “active; positive”.

**Q.** And the mutagenic call (Test System: AMES SALMONELLA TYPHIMURIUM, Strain/Indicator: TA1538, Metabolic Activation: NONE, Method: STANDARD PLATE)?
**A.** The mutagenic call was “active; positive”.

**Q.** What about the mutagenic call (Test System: AMES SALMONELLA TYPHIMURIUM, Strain/Indicator: TA1538, Metabolic Activation: RAT, LIVER, S-9, AROCLOR 1254 OR PHENOBARBITOL, Method: STANDARD PLATE) of the same compound?
**A.** Its mutagenic call is “active; positive”.

**Q.** And the mutagenic call (Test System: AMES SALMONELLA TYPHIMURIUM, Strain/Indicator: TA1538, Metabolic Activation: RAT, LIVER, S-9, KC500 OR PHENOBARBITAL, Method: LIQUID SUSPENSION)?
**A.** Its mutagenic call is “active; positive”.

**Q.** What about the mutagenic call (Test System: CHINESE HAMSTER OVARY, Strain/Indicator: CHO-K1-BH4 (HGPRT), Metabolic Activation: NONE, Method: SUSPENSION/PLATE) of the same compound?
**A.** Its mutagenic call is “active; positive”.

**Q.** And the mutagenic call (Test System: MOUSE LYMPHOMA, Strain/Indicator: L5178Y (TK+/TK-), Metabolic Activation: NONE, Method: SUSPENSION/PLATE)?
**A.** The mutagenic call was “active; positive”.

**Q.** What about the mutagenic call (Test System: MOUSE LYMPHOMA, Strain/Indicator: L5178Y (TK+/TK-), Metabolic Activation: RAT, LIVER, S-9, AROCLOR 1254, Method: SUSPENSION/PLATE) of the same compound?
**A.** Its mutagenic call is “active; positive”.

**Q.** Which results are given for `Nc1ccc(CCc2ccccc2)cc1`?
**A.** mutagenic call [2]: inactive; negative; mutagenic call [3]: active; positive; mutagenic call [1]: inactive; negative; mutagenic call [4]: active; positive
